The test system of experiment [1] is A549 lung cancer cell line. The experiment can be described thus: MTT anti-proliferative assay, lung cancer cell line A549. It counts as cell-based. The note with it: Homo sapiens, A549, read-out: IC50 (µM) A549, MTT assay, lung cancer cell line A549; average ± standard deviation of independent triplicates.
For experiment [2], the system named is T-47D breast cancer cell line. The experiment can be described thus: MTT anti-proliferative assay, breast cancer cell line T-47D. It counts as cell-based. As to conditions: Homo sapiens, T47D. For orientation: Tetrazolium dyes change colour on reduction, which living cells bring about.

We go through two compounds from paper PMC9123247 (Drug Design, Development and Therapy, 2022).

Like-named read-outs stand apart in the source and are kept apart here.

Turning to `C#Cc1cccc(Nc2ncnc3cc(OCCOC)c(OCCOC)cc23)c1` [Erlotinib], the concentration for half-maximal inhibition (IC50) in experiment [1] was 5.73 ± 0.69 µM; in experiment [2] (read-out: IC50 (µM) T-47D, MTT assay, breast cancer cell line T-47D, average ± standard deviation of independent triplicates) it was 8.14 ± 0.97 µM.
For the compound `CN[C@@H]1C[C@H]2O[C@@](C)([C@@H]1OC)n1c3ccccc3c3c4c(c5c6ccccc6n2c5c31)C(=O)NC4` [Staurosporine], the half-maximal inhibitory concentration (IC50) in experiment [2] (read-out: IC50 (µM) T-47D) came out at 6.83 ± 1.03 µM.

Usually IC50 stands for the point on the concentration scale where inhibition reaches its midpoint.
